Laboratory results as given in US10391070B2, “Compositions and methods for treating neurological diseases or injury” (MUSC FOUNDATION FOR RESEARCH DEVELOPMENT, priority 2012, dated 2019).
pEC50: −log10 of the molar value. Like-named read-outs stand apart in the source and are kept apart here.

Columns and labels:
Assay type in all cases: cell-based, mouse
[1] = system: HT22 cells; experiment: In vitro neuroprotective activity against glutamate-induced cell death (MTS cell viability); settings: Mus musculus, read-out: Protection PC50
Experimental: (§1) The HT22 neuronal cell line is a subclone of HT4, derived from the mouse hippocampus (Morimoto and Koshland, 1990). […] HT22 cells were used. The cells were grown in Dulbecco's Modified Eagle's medium (DMEM/high glucose) supplemented with 10% fetal bovine serum (Hyclone) and 5 mL Antibiotic-Antimycotic (Amphotericin B, Penicillin, and Streptomycin; Invitrogen) at 37° C. in 5% CO2.
(§2) Cell viability was assessed by the ability of the viable cells to metabolize 3-(4,5-dimethylthiazol-2-yl)-5-(3-carboxymethoxyphenyl)-2(4-sulfophenyl)2-H-tetrazolium, inner salt (MTS), as described previously (Cory et al., 1991). The metabolism of tetrazolium salts is often used to measure cellular proliferation, but in the system used here, it has been previously shown to correlate well with cell viability as determined by trypan blue exclusion and colony-forming assays (Davis and Maher, 1994). Briefly, HT-22 cells were seeded onto 96-well plates at 5.0×10^3 cells per well in 75 μL of medium and maintained at 37° C. in 5% CO2 overnight prior to the initiation of experimental treatments. For glutamate toxicity testing, cells were subsequently treated with 25 μL of medium containing glutamate (monosodium glutamate, Sigma, 1 M stock concentration in media, to achieve a final concentration of 10 mM) plus inhibitors (stock in DMSO) and maintained at 37° C. in 5% CO2. For t-BuOOH toxicity testing, cells were subsequently treated with 25 μL of medium containing t-BuOOH (Sigma, 10 mM stock concentration, to achieve a final concentration of 50 μM) plus inhibitors (stock in DMSO) and maintained at 37° C. in 5% CO2 for 3 hours, after which the media was removed, cells washed gently with HBSS, the media replaced with standard culture media, and the cells returned to incubation at 37° C. in 5% CO2. For both glutamate and t-BuOOH treatments, 10 μl of MTS solution was added to each well 24 hrs after initial treatment, and the cells were maintained in growth medium for 2 h at 37° C. Absorbance at 490 nm was subsequently measured by a SpectraMax 190 plate reader (Molecular Devices). The growth medium without cells in the presence of MTS solution was used as solution background and untreated cells were considered the controls. Cell viability was calculated as a percentage compared with untreated controls. EC50 determinations were based on 12-point titrations using GraphPad Prism, and each experiment was repeated at least four times. Morphology of HT22 cells following treatments was determined by phase-contrast microscopy. Digital images of cells grown on cell culture plates were captured at 10× magnification.
The neuroprotective properties of VK and its derivatives were estimated through their protective effects against cell death in mouse neuronal HT22 cells induced by exposure to high levels of glutamate, which recapitulates a hallmark of the extracellular environment found in several neurodegenerative diseases and CNS injuries and is a well established model of neuronal oxidative stress. This investigation began by comparing the relative abilities of the two predominant naturally occurring forms of VK, VK1 and VK2, to prevent oxidative cell death. […] Several 1,4-naphthoquinones with various substitutions at the 2′ and 3′ positions were tested to determine the minimum structural requirement of the system and what the optimum scaffold for future developmental efforts and biological validation would be (FIG. 1B and Table 1). […] Substitution by a single methyl group at the 2′ position (VK3) improves the compound's ability to protect against cell death. Various other simple substituents at the 2′ and 3′ positions give the naphthoquinone structure the ability to prevent oxidative cell death at nanomolar concentrations (Table 1 and FIG. 16).

[2] = system: HT22 cells; experiment: In vitro neurotoxicity without glutamate (MTS cell viability); settings: for Safety Index TC50/PC50: HT22 cells; for CC50: HT22 cells without glutamate, 24 hrs, MTS, concentration producing 50% toxicity, read-out: Toxicity TC50
Experimental: as §1, §2

[3] = as above; settings: mouse, HT22 cells without glutamate, 24 hrs, MTS, concentration producing 50% toxicity, read-out: Toxicity TC50
Experimental: as §1, §2

[4] = HT-22, HT22 cells, 10 mM glutamate, 24 hrs, MTS, concentration producing 50% protection
[5] = HT22 neuronal cells (without glutamate)

Structure (SMILES)	pEC50 [1, 4]	Safety Index TC50/PC50 [2]	CC50 [2] [nM]	pEC50 ([1]; HT-22, 24 h)	CC50 at 24 h [3] [nM]	CC50 at 24 h [3, 5] [nM]
CN(Cc1ccccc1)C1=CC(=O)c2ccccc2C1=O [Compound 2k, 2-(benzyl(methyl)amino)naphthalene-1,4-dione]	6.89	781	> 100000			
O=C1C=C(NCCc2ccccc2)C(=O)c2ccccc21 [Compound 2l]	6.23	171	> 100000			
O=C1C=C(NCc2ccncc2)C(=O)c2ccccc21 [Compound 2m, 2-((pyridin-4-ylmethyl)amino)naphthalene-1,4-dione]	7.14	1,111	80000			
O=C1C=C(NCc2cccnc2)C(=O)c2ccccc21 [Compound 2n, 2-((pyridin-3-ylmethyl)amino)naphthalene-1,4-dione]	6.67	172	37000			
O=C1C=C(NCc2ccccn2)C(=O)c2ccccc21 [Compound 2o, 2-((pyridin-2-ylmethyl)amino)naphthalene-1,4-dione]	6.03	54	50000			
O=C1C=C(NCc2ccc(Cl)cc2)C(=O)c2ccccc21 [Compound 2p, 2-((4-chlorobenzyl)amino)naphthalene-1,4-dione]	7.23	1,695	> 100000			
Cc1ccc(CNC2=CC(=O)c3ccccc3C2=O)cc1 [Compound 2r, 2-((4-methylbenzyl)amino)naphthalene-1,4-dione]		1,515	> 100000	7.18		
COc1ccc(CNC2=CC(=O)c3ccccc3C2=O)cc1 [Compound 2s, 2-((4-methoxybenzyl)amino)naphthalene-1,4-dione]	6.94	877	> 100000			
COC(=O)c1ccc(CNC2=CC(=O)c3ccccc3C2=O)cc1 [Compound 2t, methyl 4-(((1,4-dioxo-1,4-dihydronaphthalen-2-yl)amino)methyl)benzoate]	6.63	431	> 100000			
O=C1C=C(NCc2cccc(C(F)(F)F)c2)C(=O)c2ccccc21 [Compound 2u, 2-((3-(trifluoromethyl)benzyl)amino)naphthalene-1,4-dione]	7.35	2,222	> 100000			
O=C1C=C(NCc2ccc(Cl)c(Cl)c2)C(=O)c2ccccc21 [Compound 2v, 2-((3,4-dichlorobenzyl)amino)naphthalene-1,4-dione]	7.34	2,174	> 100000			
CC(=O)NC1=CC(=O)c2ccccc2C1=O [Compound 3a, N-(1,4-dioxo-1,4-dihydronaphthalen-2-yl)acetamide]	6.21	162			> 100000	
CCC(=O)NC1=CC(=O)c2ccccc2C1=O [Compound 3b, N-(1,4-dioxo-1,4-dihydronaphthalen-2-yl)propionamide]	6.12	105			80000	
COC(=O)NC1=CC(=O)c2ccccc2C1=O [Compound 3c, methyl(1,4-dioxo-1,4-dihydronaphthalen-2-yl)carbamate]	7.16	72			5000	
CC(C)C(=O)NC1=CC(=O)c2ccccc2C1=O [Compound 3d, N-(1,4-dioxo-1,4-dihydronaphthalen-2-yl)isobutyramide]	< 6.00	0				8000
O=C1C=C(NC(=O)C2CCCC2)C(=O)c2ccccc21 [Compound 3e, N-(1,4-dioxo-1,4-dihydronaphthalen-2-yl)cyclopentanecarboxamide]	< 6.00	0				6000
O=C1C=C(NC(=O)C2CCCCC2)C(=O)c2ccccc21 [Compound 3f, N-(1,4-dioxo-1,4-dihydronaphthalen-2-yl)cyclohexanecarboxamide]	6.56	51				14000
O=C(NC1=CC(=O)c2ccccc2C1=O)c1ccccc1 [Compound 3g, N-(1,4-dioxo-1,4-dihydronaphthalen-2-yl)benzamide]		34		6.30		17000
